We go through two molecules from ChEMBL document CHEMBL1201862, “PubChem BioAssay data set” (2004).

Test [1] in a line: A375 melanoma cell viability loss, dose response, counter-screen for MITF modulator project, CellTiter-Glo luminescence, dry powder, set 9 (AID 651591). It is filed as functional, cell-based. Conditions: A-375. On the technique in general: Counterscreens check selectivity or assay interference.
A short description of test [2]: TRPM1 promoter luciferase reporter signal decrease, dose response, MITF inhibitor project, cell-based, SK-MEL-5, dry powder, set 9 (AID 651588). It is filed as functional. On the technique in general: A reporter such as luciferase makes a cellular process visible.
The nature of test [3]: MALME3 melanoma cell viability reduction, dose response, orthogonal assay for MITF inhibitor project, CellTiter-Glo luminescence, dry powder, set 5 (AID 651584). Type of test: functional, cell-based. Conditions: MALME-3. In general terms: In ATP-based viability assays light output follows the ATP content of the culture.
Test [4] in a line: MITF: Counter assay: A375 proliferation Measured in Cell-Based System Using Plate Reader - 2084-03_Inhibitor_Dose_DryPowder_Activity_Set8. Type of test: functional. Conditions: A-375.
Test [5] can be described thus: MITF Orthogonal Assay: MALME3 CTG Assay Measured in Cell-Based System Using Plate Reader - 2084-04_Inhibitor_Dose_DryPowder_Activity_Set6. Type of test: functional. Conditions: MALME-3.
Test [6] in a line: MITF Orthogonal Assay: SK-MEL-5 CTG Assay Measured in Cell-Based System Using Plate Reader - 2084-02_Inhibitor_Dose_DryPowder_Activity_Set7. It is filed as functional.
The nature of test [7]: TRPM1 promoter luciferase reporter signal decrease, dose response, MITF inhibitor project, cell-based, SK-MEL-5, dry powder, set 8 (AID 624430). It is filed as functional.
Test [8] is described as follows: SK-MEL-5 parental cell viability reduction, dose response, orthogonal assay for MITF inhibitor project, CellTiter-Glo luminescence, dry powder, set 8 (AID 651586). Type of test: functional, cell-based.
The next test concerns the target Genome polyprotein (dengue virus type 2, UniProt P29990). Description: Dengue-2 NS5 methyltransferase inhibitors, primary screen, biochemical, confirmation dose response (AID 588689). Type of test: functional.
The target of test [9] is T1, Mannose-6-phosphate isomerase (Homo sapiens, UniProt P34949).
T1 sequence (P34949 whole entry): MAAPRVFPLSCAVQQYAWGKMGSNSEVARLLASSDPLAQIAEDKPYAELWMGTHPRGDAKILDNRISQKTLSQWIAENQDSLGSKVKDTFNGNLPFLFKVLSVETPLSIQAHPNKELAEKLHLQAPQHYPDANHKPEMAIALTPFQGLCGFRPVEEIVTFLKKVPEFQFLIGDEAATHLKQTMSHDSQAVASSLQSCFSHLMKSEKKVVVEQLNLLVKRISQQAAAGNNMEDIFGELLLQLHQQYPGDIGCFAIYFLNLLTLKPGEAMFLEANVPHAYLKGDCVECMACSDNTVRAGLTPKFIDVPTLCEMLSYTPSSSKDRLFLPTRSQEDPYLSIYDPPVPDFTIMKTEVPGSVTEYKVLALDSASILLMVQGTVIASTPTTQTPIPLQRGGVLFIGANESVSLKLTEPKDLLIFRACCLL
Description: inhibitors of human PMI, primary screen, biochemical, fluorescence intensity, coupled assay (AID 1209).

Test [10] can be described thus: NIH-3T3 fibroblast cytotoxicity, dose response, cytotoxicity control, cell-based, fluorescence, Alamar Blue, secondary assay (AID 2327).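 Also: NIH-3T3 mouse fibroblasts cultured with fluconazole at 8 µg/mL.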 Type of test: functional.
Test [11] deals with T1, Mannose-6-phosphate isomerase. Description: human PMI inhibitors, high substrate, primary screen, biochemical, fluorescence intensity, high mannose 6-phosphate (AID 1220).
Test [12] concerns the target Glutathione-S-transferase (Schistosoma japonicum, UniProt Q26513). As to the kind of experiment: biotin-GST/anti-GST TR-FRET signal inhibitors, dose response, artefact control for Vif-APOBEC3G degradation inhibitor project, biochemical (AID 1117362). It is filed as functional.
For a further test, the target named is Nonstructural protein 1 (Influenza A virus, UniProt Q194T2). Type of test: functional, Influenza A virus (A/California/07/2009(H1N1)).
A short description of test [13]: C. albicans growth with fluconazole, confirmation, fluorescence, retest (AID 2467). It is filed as functional, cell-based.
For test [14], the target named is Induced myeloid leukemia cell differentiation protein Mcl-1 (Homo sapiens, UniProt Q07820). It is filed as functional.
For test [15], the target named is Eukaryotic translation initiation factor 4E (Mus musculus, UniProt P63073). As to the kind of experiment: eIF4E–eIF4G protein interaction inhibitors, dose response, biochemical, TR-FRET (AID 855).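 Also: potency for disrupting eIF4E binding to eIF4GI seen as loss of FRET.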 It is filed as functional.

Structures are written as SMILES. Active and inactive are the calls of the source.

Genome polyprotein, sequence (P29990 2492-3391 limits assumed): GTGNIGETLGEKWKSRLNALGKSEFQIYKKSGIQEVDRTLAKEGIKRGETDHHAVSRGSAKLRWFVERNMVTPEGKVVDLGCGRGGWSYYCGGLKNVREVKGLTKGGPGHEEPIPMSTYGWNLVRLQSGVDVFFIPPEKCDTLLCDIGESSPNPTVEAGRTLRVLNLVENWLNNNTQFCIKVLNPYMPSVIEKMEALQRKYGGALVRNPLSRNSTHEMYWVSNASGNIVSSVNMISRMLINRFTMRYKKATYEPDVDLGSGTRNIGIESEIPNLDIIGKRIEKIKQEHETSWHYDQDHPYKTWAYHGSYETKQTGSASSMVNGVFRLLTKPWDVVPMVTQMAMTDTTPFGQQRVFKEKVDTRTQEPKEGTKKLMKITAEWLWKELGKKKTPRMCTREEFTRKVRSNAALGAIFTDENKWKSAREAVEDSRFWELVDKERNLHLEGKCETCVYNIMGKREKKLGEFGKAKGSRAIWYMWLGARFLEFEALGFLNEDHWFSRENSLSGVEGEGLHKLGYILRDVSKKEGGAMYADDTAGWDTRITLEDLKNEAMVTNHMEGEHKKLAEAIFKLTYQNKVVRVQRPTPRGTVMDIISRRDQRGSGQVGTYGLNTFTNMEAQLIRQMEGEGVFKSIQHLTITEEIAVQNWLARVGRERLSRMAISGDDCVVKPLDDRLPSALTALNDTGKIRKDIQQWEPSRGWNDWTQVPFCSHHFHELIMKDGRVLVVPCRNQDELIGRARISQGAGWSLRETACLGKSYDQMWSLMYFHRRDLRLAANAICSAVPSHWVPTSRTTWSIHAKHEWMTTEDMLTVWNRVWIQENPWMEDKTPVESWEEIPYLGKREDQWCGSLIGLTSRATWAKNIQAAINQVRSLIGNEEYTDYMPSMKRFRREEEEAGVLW
Nonstructural protein 1, sequence (Q194T2 whole entry): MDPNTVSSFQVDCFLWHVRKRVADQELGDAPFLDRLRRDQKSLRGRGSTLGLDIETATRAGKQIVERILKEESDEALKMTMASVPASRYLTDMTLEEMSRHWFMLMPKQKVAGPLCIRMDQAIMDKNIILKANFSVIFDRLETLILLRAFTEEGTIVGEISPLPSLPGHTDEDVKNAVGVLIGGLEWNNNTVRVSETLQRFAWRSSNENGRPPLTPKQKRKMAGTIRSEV
Eukaryotic translation initiation factor 4E, sequence (P63073 whole entry): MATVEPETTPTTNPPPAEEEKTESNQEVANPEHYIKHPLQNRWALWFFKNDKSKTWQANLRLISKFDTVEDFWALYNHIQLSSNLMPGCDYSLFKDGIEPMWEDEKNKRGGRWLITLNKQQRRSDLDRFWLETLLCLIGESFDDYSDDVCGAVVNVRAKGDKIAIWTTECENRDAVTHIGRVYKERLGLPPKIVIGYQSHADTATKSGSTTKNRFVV
Induced myeloid leukemia cell differentiation protein Mcl-1, sequence (Q07820 whole entry): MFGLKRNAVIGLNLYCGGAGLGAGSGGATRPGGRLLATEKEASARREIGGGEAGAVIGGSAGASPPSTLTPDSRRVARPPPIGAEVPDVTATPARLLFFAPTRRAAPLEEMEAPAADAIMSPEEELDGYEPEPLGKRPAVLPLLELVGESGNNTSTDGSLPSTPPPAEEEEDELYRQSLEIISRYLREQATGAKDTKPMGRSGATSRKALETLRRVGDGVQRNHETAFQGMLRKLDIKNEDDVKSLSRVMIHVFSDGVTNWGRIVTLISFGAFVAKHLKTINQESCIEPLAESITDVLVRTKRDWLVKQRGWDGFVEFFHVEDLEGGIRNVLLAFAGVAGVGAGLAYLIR
Glutathione-S-transferase, sequence (Q26513 whole entry): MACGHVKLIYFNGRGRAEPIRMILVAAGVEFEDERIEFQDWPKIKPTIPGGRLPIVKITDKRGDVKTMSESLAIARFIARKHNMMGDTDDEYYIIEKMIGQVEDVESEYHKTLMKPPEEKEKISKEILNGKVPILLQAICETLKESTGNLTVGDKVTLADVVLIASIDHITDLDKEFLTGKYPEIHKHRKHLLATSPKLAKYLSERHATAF

With `CN1CCN(C2=C(Nc3ccc(F)cc3F)C(=O)c3ccccc3C2=O)CC1`, the AC50 (commonly the concentration at which the activity in the assay is half-maximal) was > 70 µM (inactive) in [1]; 17.5 µM (active) in test [2]; 25.4 µM (active) in test [3]; > 70 µM (inactive) in test [4]; 25.4 µM (active) in test [5]; 9.87 µM (active) in test [6]. For the same molecule, the concentration at half-maximal activity (AC50) in test [7] was 5.36 µM (active); in test [8] it was > 70 µM (inactive).
With `CCn1c(C)nc2cc(C(=O)N/N=C/c3ccc(O)c(O)c3O)ccc21`, the half-inhibitory concentration (IC50) (commonly the concentration needed to halve the response being measured) at Genome polyprotein is 21.7 µM (active); in [9], 7.02 µM (active); in test [11], 8.47 µM (active); in [12], 45 µM (active); at Nonstructural protein 1 it was 16.6 µM (active); in [14] it was > 54 µM (active). In [15], the IC50 was 27.5 µM (active). Further, the EC50 (commonly the midpoint of the concentration-response curve) was 104 µM (active) in test [10] and 1.6 µM (active) in test [13].
